Experimental data as given in the NIST ThermoML archive (doi:10.1021/je900596d).

Details: for mass density: 303.28 K, Fluid (supercritical or subcritical phases), Vibrating tube method

FC(F)=C(F)C(F)(F)F [hexafluoropropene]
Details | vapor or sublimation pressure [kPa]
303.22 K, Liquid, Closed cell (Static) method | 839.7

Details | mass density [kg/m3]
2.4 kPa | 0.14
4.4 kPa | 0.19
5.3 kPa | 0.25
7.7 kPa | 0.38
11 kPa | 0.59
12.7 kPa | 0.7
13.6 kPa | 0.71
14.5 kPa | 0.85
16.3 kPa | 0.86
17.2 kPa | 0.87
18.1 kPa | 1.01
22.7 kPa | 1.19
24.5 kPa | 1.4
26.4 kPa | 1.46
28.1 kPa | 1.59
30 kPa | 1.72
33.6 kPa | 1.94
37.2 kPa | 2.14
38.2 kPa | 2.2
40 kPa | 2.21
41.8 kPa | 2.46
43.6 kPa | 2.43
47.2 kPa | 2.81
50.8 kPa | 3.02
52.5 kPa | 3.04
56 kPa | 3.26
57.9 kPa | 3.38
59.7 kPa | 3.48
61.4 kPa | 3.61
63.1 kPa | 3.73
64.8 kPa | 3.84
66.5 kPa | 3.93
68.3 kPa | 3.99
73.4 kPa | 4.37
76 kPa | 4.49
78.6 kPa | 4.64
81.2 kPa | 4.8
83.8 kPa | 4.98
86.4 kPa | 5.18
88.9 kPa | 5.4
94.2 kPa | 5.64
96.9 kPa | 5.73
98.7 kPa | 5.85
100.4 kPa | 6.09
103.1 kPa | 6.18
105.7 kPa | 6.35
108.4 kPa | 6.54
113.7 kPa | 6.9
116.4 kPa | 6.95
124.2 kPa | 7.43
126.7 kPa | 7.66
132.1 kPa | 7.96
134.8 kPa | 8.17
137.3 kPa | 8.36
139.9 kPa | 8.56
142.5 kPa | 8.68
145.1 kPa | 8.84
147.8 kPa | 9.01
153 kPa | 9.28
155.7 kPa | 9.53
158.4 kPa | 9.61
163.7 kPa | 9.96
166.2 kPa | 10.08
168.8 kPa | 10.29
171.4 kPa | 10.52
174 kPa | 10.66
176.6 kPa | 10.78
179.2 kPa | 10.96
181.8 kPa | 11.08
184.4 kPa | 11.32
187 kPa | 11.51
194.7 kPa | 11.98
197.5 kPa | 12.12
202.8 kPa | 12.46
206.2 kPa | 12.64
209.6 kPa | 12.92
213 kPa | 13.17
216.4 kPa | 13.34
219.9 kPa | 13.6
223.3 kPa | 13.85
226.8 kPa | 14.01
230.3 kPa | 14.3
233.7 kPa | 14.54
244.3 kPa | 15.23
247.7 kPa | 15.41
251.2 kPa | 15.74
254.6 kPa | 15.88
258.1 kPa | 16.18
261.6 kPa | 16.37
265.1 kPa | 16.6
268.6 kPa | 16.83
275.3 kPa | 17.32
278.7 kPa | 17.49
282.2 kPa | 17.78
285.5 kPa | 17.97
289 kPa | 18.22
295.7 kPa | 18.58
299.1 kPa | 18.89
309 kPa | 19.54
313.2 kPa | 19.76
317.3 kPa | 20.15
321.7 kPa | 20.39
325.7 kPa | 20.7
329.8 kPa | 21.01
338 kPa | 21.54
342 kPa | 21.84
346.2 kPa | 22.19
350.3 kPa | 22.34
358.6 kPa | 23.03
362.7 kPa | 23.29
366.9 kPa | 23.58
375.1 kPa | 24.18
379.2 kPa | 24.47
383.4 kPa | 24.75
387.5 kPa | 25.04
391.7 kPa | 25.35
395.8 kPa | 25.63
399.9 kPa | 25.95
406.9 kPa | 26.42
416.6 kPa | 27.12
421.9 kPa | 27.51
426.1 kPa | 27.84
435.7 kPa | 28.54
441.2 kPa | 28.92
446.7 kPa | 29.28
452.1 kPa | 29.75
457.4 kPa | 30.13
461.6 kPa | 30.45
467 kPa | 30.79
472.4 kPa | 31.26
477.7 kPa | 31.6
488.4 kPa | 32.46
